Activity calls are given as the source filed them.
Tests used:
[1] = molecular target: Dual specificity tyrosine-phosphorylation-regulated kinase 1A (Rattus norvegicus, UniProt Q63470); format: biochemical, Homo sapiens
[2] = molecular target: Dual specificity protein kinase CLK1 (Homo sapiens, UniProt P49759); test: inhibition of human CLK1 activity – biochemical, cherry-picked samples, selectivity assay for Dyrk1A inhibitor project, dose response (AID 588811)
[3] = molecular target: T1, Endoribonuclease toxin MazF (Escherichia coli K-12, UniProt P0AE70); test: activation of MazEF endoribonuclease cleavage – biochemical, fluorescence, single-stranded RNA substrate, uHTS hits, dose response (AID 588481); format: functional
T1 sequence (P0AE70 whole entry): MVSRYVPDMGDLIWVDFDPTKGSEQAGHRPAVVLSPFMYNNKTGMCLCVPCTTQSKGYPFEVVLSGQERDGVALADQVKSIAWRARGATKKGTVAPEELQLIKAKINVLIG

[4] = molecular target: T1, Endoribonuclease toxin MazF; test: substrate-only fluorescence increase artefacts – biochemical, single-stranded RNase substrate, counter-screen for MazEF activator project, dose response (AID 588502); format: functional
[5] = molecular target: T2, Type-1 angiotensin II receptor (Homo sapiens, UniProt P30556); test: antagonism of angiotensin II type 1 receptor – cell-based, uHTS hits, selectivity assay for APJ receptor antagonist project, dose response (AID 463214); format: functional;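 note: antagonist potency against angiotensin II stimulated AT1 response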
T2 sequence (P30556 whole entry): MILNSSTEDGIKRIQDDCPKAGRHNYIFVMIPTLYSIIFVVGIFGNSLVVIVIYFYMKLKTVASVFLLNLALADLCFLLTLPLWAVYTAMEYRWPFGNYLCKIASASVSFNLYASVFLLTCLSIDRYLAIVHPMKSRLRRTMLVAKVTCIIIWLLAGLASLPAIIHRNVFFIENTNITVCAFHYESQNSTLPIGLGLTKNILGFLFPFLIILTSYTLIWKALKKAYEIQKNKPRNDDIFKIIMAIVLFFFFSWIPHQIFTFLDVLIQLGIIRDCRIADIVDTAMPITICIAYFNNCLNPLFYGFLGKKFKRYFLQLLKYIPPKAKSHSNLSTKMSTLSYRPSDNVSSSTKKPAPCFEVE

[6] = molecular target: Beta-galactosidase (Escherichia coli, UniProt Q8VNN2); test: PubChem AID 485352; format: functional
Sequence of Beta-galactosidase (Q8VNN2 whole entry): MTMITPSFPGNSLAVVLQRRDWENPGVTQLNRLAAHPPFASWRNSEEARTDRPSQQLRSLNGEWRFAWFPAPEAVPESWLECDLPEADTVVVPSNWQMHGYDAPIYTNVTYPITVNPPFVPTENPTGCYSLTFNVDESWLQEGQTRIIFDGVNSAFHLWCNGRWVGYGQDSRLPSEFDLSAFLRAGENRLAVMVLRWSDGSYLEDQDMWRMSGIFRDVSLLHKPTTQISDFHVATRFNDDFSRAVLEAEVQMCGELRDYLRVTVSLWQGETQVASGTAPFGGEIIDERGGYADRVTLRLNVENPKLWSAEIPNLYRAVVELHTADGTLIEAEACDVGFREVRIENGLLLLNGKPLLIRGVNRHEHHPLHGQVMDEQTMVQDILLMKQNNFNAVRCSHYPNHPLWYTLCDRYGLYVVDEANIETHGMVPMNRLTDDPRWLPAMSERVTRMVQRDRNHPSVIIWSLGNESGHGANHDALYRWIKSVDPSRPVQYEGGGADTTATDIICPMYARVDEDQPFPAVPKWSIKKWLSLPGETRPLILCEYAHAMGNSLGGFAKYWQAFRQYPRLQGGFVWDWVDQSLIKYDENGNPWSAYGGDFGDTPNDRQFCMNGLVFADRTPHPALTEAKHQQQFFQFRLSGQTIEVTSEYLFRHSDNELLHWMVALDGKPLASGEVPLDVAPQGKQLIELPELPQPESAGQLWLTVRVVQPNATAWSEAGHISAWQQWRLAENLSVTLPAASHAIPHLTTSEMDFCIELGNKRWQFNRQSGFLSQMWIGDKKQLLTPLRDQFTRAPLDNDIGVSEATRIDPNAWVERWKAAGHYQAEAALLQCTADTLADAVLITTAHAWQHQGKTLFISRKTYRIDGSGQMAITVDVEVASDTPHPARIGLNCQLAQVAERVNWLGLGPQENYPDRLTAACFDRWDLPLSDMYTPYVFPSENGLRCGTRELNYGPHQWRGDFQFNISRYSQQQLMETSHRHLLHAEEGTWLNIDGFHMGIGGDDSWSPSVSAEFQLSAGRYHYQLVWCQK

[7] = DRD fibroblast viability loss – cell-based, non-viral oncogenic, luminescence, dose response (AID 1934); format: functional; conditions: Homo sapiens
[8] = system: BJ; test: BJ-TERT fibroblast viability loss – cell-based, RAS-independent, luminescence, dose response (AID 1933); format: functional; conditions: Homo sapiens
[9] = system: Jurkat; test: blockers of NF-kB activation in T cells – Jurkat, luciferase reporter, luminescence, B- and T-cell, dose response (AID 489004); format: functional, cell-based; conditions: Homo sapiens;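 note: NF-kB luciferase reporter Jurkat cells stimulated with PMA plus ionomycin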
[10] = HEK-293T viability loss, compound-treated – cell-based, uHTS hits, cytotoxicity control for B/T-cell NF-kB inhibitor project, dose response (AID 489019); format: functional;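 note: IC50 reflects cytotoxicity as loss of cell viability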
[11] = system: BJ; test: cells; format: functional, cell-based; conditions: Homo sapiens
[12] = system: BJ; test: BJ-TERT-LT-ST fibroblast viability loss – cell-based, RAS-independent, luminescence, dose response (AID 1935); format: functional; conditions: Homo sapiens;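 note: BJ fibroblasts immortalized with TERT plus LT and ST oncogenes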
[13] = molecular target: Beta-2 adrenergic receptor (Homo sapiens, UniProt P07550); test: ADRB2 activation measured by internalization – cell-based, FAP fluorogen, flow cytometry, cherry pick 1, dose response (AID 588763); format: functional
Sequence of Beta-2 adrenergic receptor (P07550 whole entry): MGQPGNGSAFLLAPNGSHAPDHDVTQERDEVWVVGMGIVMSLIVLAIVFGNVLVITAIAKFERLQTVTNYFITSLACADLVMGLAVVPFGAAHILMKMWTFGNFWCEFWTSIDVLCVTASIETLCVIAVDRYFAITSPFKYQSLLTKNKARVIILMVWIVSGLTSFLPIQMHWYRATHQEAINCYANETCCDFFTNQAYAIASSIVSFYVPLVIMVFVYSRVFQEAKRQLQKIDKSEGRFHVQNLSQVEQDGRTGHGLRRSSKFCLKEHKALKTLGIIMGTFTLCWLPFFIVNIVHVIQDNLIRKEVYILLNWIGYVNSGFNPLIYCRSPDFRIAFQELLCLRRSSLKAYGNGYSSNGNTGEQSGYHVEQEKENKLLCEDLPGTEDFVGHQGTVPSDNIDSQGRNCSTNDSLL

[14] = system: BJ; test: growth inhibition of engineered Ras-driven BJ cells – cell-based, alamar blue fluorescence, cherrypicked samples, dose response (AID 2631); format: functional; conditions: Homo sapiens;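 note: confirmatory dose-response assay in RAS-dependent BJ fibroblasts engineered with TERT, LT and ST, with cytotoxicity read by fluorescence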
[15] = molecular target: T3, Streptokinase A (Streptococcus pyogenes serotype M1, UniProt P10520); test: viability-normalized secreted streptokinase activity reduction – plasminogen activation absorbance, OD405, dose response (AID 1914); format: functional, Streptococcus pyogenes M1 GAS;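 note: secreted streptokinase activity via plasminogen activation per viability signal from cell pellet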
T3 sequence (P10520 whole entry): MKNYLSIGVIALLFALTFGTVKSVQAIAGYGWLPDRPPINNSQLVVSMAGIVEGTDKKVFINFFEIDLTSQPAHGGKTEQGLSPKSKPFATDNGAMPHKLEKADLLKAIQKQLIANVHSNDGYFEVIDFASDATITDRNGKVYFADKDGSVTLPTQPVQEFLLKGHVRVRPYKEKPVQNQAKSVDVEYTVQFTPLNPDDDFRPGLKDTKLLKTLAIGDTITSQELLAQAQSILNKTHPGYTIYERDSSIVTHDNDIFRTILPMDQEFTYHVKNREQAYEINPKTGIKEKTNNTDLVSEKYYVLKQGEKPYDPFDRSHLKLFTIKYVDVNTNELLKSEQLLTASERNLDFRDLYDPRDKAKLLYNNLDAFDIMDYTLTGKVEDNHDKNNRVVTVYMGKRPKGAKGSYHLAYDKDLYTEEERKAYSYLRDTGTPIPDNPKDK

[16] = reduction of Shn3 3'UTR-driven luciferase in osteoblasts – cell-based, Clone20 osteoblasts, firefly luciferase, cherry-picked, dose response (AID 624132); format: functional;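 note: firefly luciferase luminescence from reporter carrying the Shn3 3'UTR in osteoblasts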
[17] = system: HEK293; test: EBV LMP1 TES2 canonical NF-kB signalling blockers – cell-based, HEK293, luciferase, cherry-pick, dose response (AID 588343); format: functional, Homo sapiens; conditions: Homo sapiens, HEK293
[18] = molecular target: T4, Ubiquitin-conjugating enzyme E2 N (Homo sapiens, UniProt P61088); format: functional
T4 sequence (P61088 whole entry): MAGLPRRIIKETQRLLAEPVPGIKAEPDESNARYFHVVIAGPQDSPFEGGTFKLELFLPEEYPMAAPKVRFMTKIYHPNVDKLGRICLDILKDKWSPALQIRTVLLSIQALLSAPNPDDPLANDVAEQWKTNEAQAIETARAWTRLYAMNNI

[19] = loss of viability in HepG2 cells – cell-based, CellTiter-Glo, cherry-picked, cytotoxicity control for Shn3 inhibitor project, dose response (AID 624134); format: functional
[20] = system: HEK293; test: inhibition of NOD1-driven NF-kB reporter – cell-based, luminescence, uHTS, primary screen (AID 1578); format: functional; conditions: Homo sapiens
[21] = molecular target: Hepatocyte nuclear factor 4-alpha (Homo sapiens, UniProt P41235); format: functional, cell-based;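 note: biochemical luminescence-based dose-response counterscreen measuring inhibition of HNF4 dimerization, run alongside a screen for blockers of ABHD5–perilipin-5 interaction; split luciferase complementation of HNF4 fusion proteins in cell lysate measuring dimerization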
Sequence of Hepatocyte nuclear factor 4-alpha (P41235 whole entry, the tested form may be a part): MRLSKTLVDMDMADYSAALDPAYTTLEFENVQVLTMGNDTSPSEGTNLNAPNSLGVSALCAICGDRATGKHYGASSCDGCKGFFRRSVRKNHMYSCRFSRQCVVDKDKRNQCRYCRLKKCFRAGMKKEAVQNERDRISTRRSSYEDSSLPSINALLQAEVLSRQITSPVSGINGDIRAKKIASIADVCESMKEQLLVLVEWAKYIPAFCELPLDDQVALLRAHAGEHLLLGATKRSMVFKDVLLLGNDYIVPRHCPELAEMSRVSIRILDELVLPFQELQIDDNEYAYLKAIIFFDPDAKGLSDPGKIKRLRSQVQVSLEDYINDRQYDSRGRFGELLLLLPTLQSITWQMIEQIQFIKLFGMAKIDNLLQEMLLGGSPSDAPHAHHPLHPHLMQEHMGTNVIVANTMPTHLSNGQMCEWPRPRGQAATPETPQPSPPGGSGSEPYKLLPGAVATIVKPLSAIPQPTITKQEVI

[22] = system: Streptococcus; test: GAS UMAA2166 growth inhibition – luminescence, BacTiterGlo, counter-screen for streptokinase expression inhibitor project, dose response (AID 1915); format: functional, organism-based;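 note: potency for reduction of bacterial viability or growth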
[23] = system: HEK293; test: cells; format: functional, cell-based; conditions: Homo sapiens
[24] = viability loss in HeLa cells – cytotoxicity control for MgcRacGAP inhibitor project, dose response (AID 624300); format: functional
[25] = microbe, parasite or virus in culture; format: functional; conditions: Mycobacterium tuberculosis
[26] = system: Streptococcus sp. 'group A'; test: Streptococcus pyogenes SK(-)GAS viability under kanamycin – luminescence, BacTiterGlo, confirmation, counter-screen for streptokinase expression inhibitor project, dose response (AID 1900); format: functional, organism-based
[27] = system: HEK293; test: cells; format: functional, cell-based; conditions: Homo sapiens; remark: listed apart in the source
[28] = molecular target: T5, Rac GTPase-activating protein 1 (Homo sapiens, UniProt Q9H0H5); test: blockers of MgcRacGAP-driven Rac1 GTP hydrolysis – biochemical, ADP Hunter fluorescence, primary and confirmatory, confirmation (AID 624330); format: functional
T5 sequence (Q9H0H5 whole entry): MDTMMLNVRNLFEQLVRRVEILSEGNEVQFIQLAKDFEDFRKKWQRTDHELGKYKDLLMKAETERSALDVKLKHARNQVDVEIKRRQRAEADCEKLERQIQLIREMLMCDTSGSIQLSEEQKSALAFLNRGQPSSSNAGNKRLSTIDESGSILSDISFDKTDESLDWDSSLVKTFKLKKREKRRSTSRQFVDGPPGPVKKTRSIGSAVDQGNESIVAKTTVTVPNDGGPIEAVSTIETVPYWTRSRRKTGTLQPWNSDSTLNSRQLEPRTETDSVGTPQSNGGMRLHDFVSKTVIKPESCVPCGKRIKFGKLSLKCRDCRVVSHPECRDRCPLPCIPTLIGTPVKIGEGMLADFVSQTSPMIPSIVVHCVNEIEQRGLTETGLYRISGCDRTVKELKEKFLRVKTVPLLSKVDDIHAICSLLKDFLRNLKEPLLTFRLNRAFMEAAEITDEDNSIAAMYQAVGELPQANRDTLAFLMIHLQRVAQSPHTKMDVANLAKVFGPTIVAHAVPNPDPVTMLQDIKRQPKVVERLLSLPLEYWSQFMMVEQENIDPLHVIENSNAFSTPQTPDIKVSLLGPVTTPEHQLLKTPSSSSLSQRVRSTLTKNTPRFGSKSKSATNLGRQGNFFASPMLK

[29] = molecular target: T6, Bcl-2-related protein A1 (Mus musculus, UniProt Q07440); format: functional;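 note: confirmatory dose–response counterscreen on Bfl-1, used to check hits from a UBC13 polyubiquitin inhibitor campaign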
T6 sequence (Q07440 whole entry): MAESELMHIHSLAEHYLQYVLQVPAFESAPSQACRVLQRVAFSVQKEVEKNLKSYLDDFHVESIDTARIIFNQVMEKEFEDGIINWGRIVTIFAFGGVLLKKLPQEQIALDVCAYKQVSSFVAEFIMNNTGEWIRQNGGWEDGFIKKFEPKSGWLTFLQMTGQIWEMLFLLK

[30] = molecular target: T4, Ubiquitin-conjugating enzyme E2 N; format: functional; remark: listed apart in the source
[31] = non-specific 3'UTR reporter inhibition in Clone20-Shn3RL – cell-based, Renilla luciferase, cherry-picked, counter-screen for Shn3 inhibitor project, dose response (AID 624133); format: functional
[32] = luciferase reporter signal suppression in cells – H4 neuroglioma cells, luminescence, dose response (AID 1990); format: functional, cell-based
[33] = molecular target: Nonstructural protein 1 (Influenza A virus, UniProt Q194T2); format: functional, Influenza A virus (A/California/07/2009(H1N1))
Sequence of Nonstructural protein 1 (Q194T2 whole entry): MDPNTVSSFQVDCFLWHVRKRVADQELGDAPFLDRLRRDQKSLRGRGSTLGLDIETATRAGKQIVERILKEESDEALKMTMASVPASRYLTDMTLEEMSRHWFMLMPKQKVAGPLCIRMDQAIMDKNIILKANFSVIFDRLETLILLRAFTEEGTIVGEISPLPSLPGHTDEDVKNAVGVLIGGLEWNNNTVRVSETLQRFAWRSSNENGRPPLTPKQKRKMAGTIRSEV

[34] = cells; format: functional, cell-based
[35] = alpha-synuclein stem-loop luciferase translation blockers – H4 neuroglioma cells, luminescence, confirmation (AID 1988); format: functional, cell-based
[36] = system: INS1; test: INS-1E survival protection against cytokine death – cell-based, luminescence, retest, dose response (AID 449756); format: functional; conditions: Rattus norvegicus;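 note: cell death triggered by IL-1 beta plus TNF-alpha plus IFN-gamma mixture; protective hits raise ATP signal compared with cytokine alone wells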
[37] = cells; format: functional, cell-based; remark: listed apart in the source
[38] = Luminescence Cell-Based Dose Response HTS to Identify Inhibitors of 5'UTR Stem-Loop Driven Prion Protein mRNA Translation in H4 Neuroglioblastoma Cells. [Related pubchem assays: 1827 (Project Summary), 1813 (Primary HTS)]; format: functional

Sequence of Dual specificity protein kinase CLK1 (P49759 whole entry): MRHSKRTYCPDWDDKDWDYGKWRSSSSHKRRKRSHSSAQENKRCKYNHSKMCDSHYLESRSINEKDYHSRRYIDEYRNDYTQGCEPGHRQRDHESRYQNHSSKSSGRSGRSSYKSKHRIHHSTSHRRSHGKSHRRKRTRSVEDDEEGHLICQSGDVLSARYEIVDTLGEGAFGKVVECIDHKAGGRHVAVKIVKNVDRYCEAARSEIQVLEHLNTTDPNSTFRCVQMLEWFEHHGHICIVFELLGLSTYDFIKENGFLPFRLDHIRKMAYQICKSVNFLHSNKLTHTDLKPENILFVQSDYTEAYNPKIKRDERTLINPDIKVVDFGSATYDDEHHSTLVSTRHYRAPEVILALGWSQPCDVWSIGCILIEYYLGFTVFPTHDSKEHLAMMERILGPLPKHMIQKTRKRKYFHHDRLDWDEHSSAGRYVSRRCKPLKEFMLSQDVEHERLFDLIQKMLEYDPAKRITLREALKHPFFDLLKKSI

O=C(COc1ccccc1)Nc1cccc(-c2cn3cccnc3n2)c1
AC50 [1]: 3.85 µM (active) | AC50 [2]: 10.4 µM (active)

Cc1cc(OCC(=O)NCc2ccc(S(N)(=O)=O)cc2)c2c3c(c(=O)oc2c1)CCC3
EC50 [3]: > 99 µM (inactive) | EC50 [4]: > 99 µM (inactive)

O=C(CCC(=O)OCC(=O)c1cccc([N+](=O)[O-])c1)Nc1cccc(Cl)c1Cl
IC50 [5]: 34.2 µM (not active) | EC50 [6]: > 40 µM (inactive)

CC1CCCN(c2ccc([N+](=O)[O-])cc2C(=O)c2ccccc2)C1 (centres undefined)
EC50 [7]: 1.29 µM (active) | EC50 [8]: 1.27 µM (active) | IC50 [9]: 40.6 µM (inactive) | IC50 [10]: > 80 µM (inactive) | EC50 [11]: 1.32 µM (active) | EC50 [12]: 0.657 µM (inconclusive) | EC50 [13]: 12.2 µM (inactive) | EC50 [14]: 0.314 µM (active)

CCN1CCN(Cc2ccc(NC(=O)c3ccc(C)c(/C=C/c4cnc(Nc5cc(N6CCNCC6)nc(C)n5)cn4)c3)cc2C(F)(F)F)CC1
EC50 [15]: 86.5 µM (active) | AC50 [16]: 9.56 µM (active) | AC50 [17]: 0.725 µM (active) | IC50 [18]: 11.1 µM (active) | AC50 [19]: 19.6 µM (active) | EC50 [20]: 7.23 µM (active) | IC50 [21]: 5.88 µM (active) | EC50 [22]: > 150 µM (not active) | AC50 [1]: 12.8 µM (active) | IC50 [23]: > 20 µM (inactive) | CC50 [24]: 21.6 µM (active) | CC50 [25]: 6.89 µM (active) | EC50 [26]: 6.36 µM (active) | IC50 [27]: > 20 µM (inactive) | IC50 [28]: 41 µM (active) | IC50 [29]: > 20 µM (inactive) | IC50 [30]: 9.4 µM (active) | AC50 [31]: 27.6 µM (active) | AC50 [2]: 1.99 µM (active) | EC50 [32]: 0.424 µM (inconclusive)

Cc1ncc(CO)c(/C=N/Nc2ccc(C(F)(F)F)cn2)c1O
IC50 [33]: 7.34 µM (active) | EC50 [34]: 8.1 µM (active) | IC50 [5]: 28.7 µM (not active) | AC50 [1]: 5.06 µM (active) | EC50 [6]: > 40 µM (inactive) | EC50 [35]: 0.907 µM (active) | AC50 [36]: 0.944 µM (active) | EC50 [37]: > 350 µM (not active) | EC50 [38]: 1.01 µM (active) | EC50 [32]: 5.4 µM (active)

Reference: ChEMBL document CHEMBL1201862, “PubChem BioAssay data set” (2004)
